Experimental data: US20110301137A1 (APEX LABORATORIES PRIVATE LIMITED, priority 2009, published 2011)
Read-outs that look alike come from different tables or passages of the source.

Assay type: physicochemical
Details: for degradation of the API: 3 months; for Initial (%): at time of receipt of the API from the supplier

degradation of the API | Initial (%) (Sodium Fusidate BP) | Initial (%) (Fusidic Acid BP) | SMILES
2.45-6% | 98.7% |  | CC(=O)O[C@H]1C[C@@]2(C)[C@@H](C[C@@H](O)[C@H]3[C@@]4(C)CC[C@@H](O)[C@@H](C)[C@@H]4CC[C@@]32C)/C1=C(\CCC=C(C)C)C(=O)O [Sodium Fusidate]
7.7-11% |  | 100.6% | CC(=O)O[C@H]1C[C@@]2(C)[C@@H](C[C@@H](O)[C@H]3[C@@]4(C)CC[C@@H](O)[C@@H](C)[C@@H]4CC[C@@]32C)/C1=C(\CCC=C(C)C)C(=O)O [Fusidic Acid, Fusidic acid]
